The target of assay [1] is T1, recombinant human STIM1 and Orai1 (Homo sapiens, UniProt Q96D31).
T1 construct: c-myc (C); expressed in transfected cells; host or cells: HEK-293 cells stably expressing human STIM1 and human Orai1
Put plainly: Fluorescence-based assay of store-operated calcium entry in Orai1/STIM1 stable cells (FLIPR). It is filed as cell-based. Conditions: HEK-293 cells stably expressing human Orai1/STIM1; Fluo-4; Peak-Basal signal; read-out: FLIPR_CRAC: 9 point CRC: O1S1_JR251: IC50: Peak_over_Basal. As for the experimental part: A. Fluorescence-Based Assay of Store-Operated Calcium Entry in Orai1/Stim1 Stable Cells.
Cells stably expressing recombinant human STIM1 and Orai1 are generated by transfecting a human Orai1 expression plasmid (pcDNA3.1-Orai1-cmyc) into HEK-293 cells stably overexpressing human STIM1 (Roos et al. 2005 JCB 169(3): 435-445). Colonies of cells stably expressing both STIM1 and Orai1 proteins are selected and then subcloned by limiting dilution. Cells were cultured at 37° C./6% CO2 in complete medium with 10% FBS and appropriate selection markers.
The day prior to performing the assay Orai1/STIM1 stable cells are plated in 50 μL of complete medium at 90-95% confluence in a 384 well plate. Cells are grown at 37° C./6% CO2 overnight. On the day of the assay, 1.5 μM fluo-4-AM (Invitrogen) in complete medium is added to the cells, which are then incubated for 1 hour at RT. Cells are washed once in Ca^2+-free HBSS (Hank's buffered saline solution) and 35 μl of Ca^2+-free HBSS is added to each well. Test compounds are added to wells in a 10 μL Ca^2+-free HBSS solution, prepared at 4.5× the desired final concentration, and incubated for 30 minutes at RT. The initial baseline fluorescence signal is then measured with a FLIPR^384 (Molecular Devices) plate reader. Calcium entry is initiated by adding 5 μl of 10×CaCl2 (10 mM) in HBSS, and changes in cellular fluorescence are measured with the FLIPR^384 plate reader. In each well, the magnitude of the fluorescence signal as a result of calcium entry into the cell is determined by calculating the difference between the peak fluorescence signal measured after calcium addition and the initial baseline fluorescence signal (designated Peak-Basal). IC50 values are typically calculated as the concentration that inhibited 50% of the Peak-Basal signal.

The next assay deals with RBL-2H3 cells. Put plainly: Fluorescence-based assay of store-operated calcium entry in RBL-2H3 cells (FLIPR, thapsigargin). It is filed as cell-based, rat. The note with it: Fluo-4, Upslope 0-7 sec, read-out: FLIPR_CRAC: 9 pt CRC - Fluo4_TG-D: RBL-2H3: IC50: Upslope 0-7 sec. As to the method:
B. Fluorescence-Based Assay of Store-Operated Calcium Entry in RBL-2H3 Cells.
RBL-2H3 cells are obtained from ATCC and maintained in complete medium with 10% FBS at 37° C./6% CO2.
The day prior to performing the assay, RBL-2H3 cells are plated in 50 μl of complete medium in a 384 well plate. Cells are grown at 37° C./6% CO2 overnight and grow to 50-60% confluence by the next day. On the assay day, 1.5 μM Fluo-4-AM dye (Invitrogen) in complete medium is added and incubated for 1 hour at RT. Cells are washed twice in Ca^2+-free HBSS buffer and 35 μl Ca^2+-free HBSS buffer is added to each well. 10 μl of a test compound prepared in a Ca^2+-free HBSS solution at 4.5× of the desired concentration is added to a well and incubated for 5 minutes at RT. 10 μl of thapsigargin prepared in a Ca^2+-free HBSS solution at 5.5× of the desired concentration (5.5 uM) is added to each well and incubated for an additional 25 minutes. The initial baseline fluorescence signal is measured with a FLIPR^384 (Molecular Devices) plate reader. 5 μl of 12× calcium in HBSS (12 mM) is added and changes in cellular fluorescence are measured with the FLIPR^384 plate reader. In each well, the change in the fluorescent signal as a function of time due to calcium entry into the cell is determined by calculating the difference between the fluorescent signal measured 7 seconds after calcium addition and the initial baseline fluorescence signal at time zero (t=0). This parameter is designated Upslope. The IC50 value is calculated as the concentration at which 50% of the Upslope is inhibited.

Assay [2] concerns secreted IL-2 in Jurkat T cells. Put plainly: In vitro assay of cytokine (IL-2) release from T cells. It is filed as cell-based. The note with it: Jurkat E6-1 cells, PHA/TPA stimulation 20 hours, IL-2 ELISA. As for the experimental part: In Vitro Assay of Cytokine Release from T Cells
Jurkat E6-1 cells are obtained from ATCC and maintained in complete medium with 10% FBS at 37° C./6% CO2.
The day prior to performing the assay, Jurkat T cells are plated in 90 μL of HBSS Buffer with 1.8 mM CaCl2 and 1.75% fetal bovine serum (FBS) in a 96 well plate at a density of 1.5×10^5 cells/well for 3 hours. 10 μl of 10× test compound prepared in HBSS is added and incubated for 10 minutes at 37° C./6% CO2. Cells are stimulated by the addition of 10 μl of 11×PHA/TPA (27.5 μg/mL PHA/880 nM TPA) and incubated at 37° C./6% CO2 for 20 hours. On the following day, the supernatants are collected and assayed for IL-2 levels by ELISA according to the manufacturer's protocols. The IC50 value is calculated as the concentration at which 50% of secreted IL-2 in vehicle treated cells is inhibited.
(In general: An ELISA detects its analyte on a solid surface through an enzyme-linked reagent.)

Where two headings read alike, the source gives them in different places.

T1 sequence (Q96D31 whole entry): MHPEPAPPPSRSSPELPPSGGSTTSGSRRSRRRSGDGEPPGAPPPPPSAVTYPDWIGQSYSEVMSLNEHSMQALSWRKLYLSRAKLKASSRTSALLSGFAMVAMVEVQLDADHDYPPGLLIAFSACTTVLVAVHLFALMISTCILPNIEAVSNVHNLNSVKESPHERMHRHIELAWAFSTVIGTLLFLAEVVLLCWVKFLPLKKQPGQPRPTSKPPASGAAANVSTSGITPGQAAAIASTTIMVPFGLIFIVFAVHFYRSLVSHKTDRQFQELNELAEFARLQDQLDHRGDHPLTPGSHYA

As usually defined, the IC50 is the point on the concentration scale where inhibition reaches its midpoint. For the compound `Cc1nc2cc(Cl)c(-c3ccc(C(=O)Nc4ccccc4Cl)s3)cc2o1` [Example 1, [5-(5-chloro-2-methylbenzoxazol-6-yl)(2-thienyl)]-N-(2-chlorophenyl)carboxamide], the IC50 in assay [1] is below 600 nM; in the assay on RBL-2H3 cells (Rattus norvegicus) it was below 600 nM; in assay [2] (Homo sapiens), below 50 nM.
For the compound `Cc1nc2cc(Cl)c(-c3ccc(C(=O)Nc4ccccc4F)s3)cc2o1` [Example 2, [5-(5-chloro-2-methylbenzoxazol-6-yl)(2-thienyl)]-N-(2-fluorophenyl)carboxamide], the concentration for half-maximal inhibition (IC50) in assay [1] was below 600 nM; in the assay on RBL-2H3 cells (Rattus norvegicus), below 600 nM; in assay [2] (Homo sapiens), below 50 nM.
As to `Cc1nc2cc(Cl)c(-c3ccc(C(=O)Nc4c(F)cccc4F)s3)cc2o1` [Example 3, [5-(5-chloro-2-methylbenzoxazol-6-yl)(2-thienyl)]-N-(2,6-difluorophenyl)carboxamide], the IC50 was below 600 nM in assay [1], below 600 nM in the assay with RBL-2H3 cells (Rattus norvegicus) and below 50 nM in assay [2] (Homo sapiens).
Turning to `Cc1cc2scnc2cc1-c1ccc(C(=O)Nc2c(F)cccc2F)s1` [Example 4, N-(2,6-difluorophenyl)[5-(6-methylbenzothiazol-5-yl)(2-thienyl)]carboxamide], the IC50 in assay [1] was below 600 nM; with RBL-2H3 cells (Rattus norvegicus) it was below 600 nM; in assay [2] (Homo sapiens), below 50 nM.
Take `Cc1cc2scnc2cc1-c1ccc(C(=O)Nc2ccccc2F)s1` [Example 5, N-(2-fluorophenyl)[5-(6-methylbenzothiazol-5-yl)(2-thienyl)]carboxamide]: the IC50 in assay [1] is below 600 nM; in the assay with RBL-2H3 cells (Rattus norvegicus), below 600 nM; in assay [2] (Homo sapiens), below 50 nM.
Turning to `Cc1cc2scnc2cc1-c1ccc(C(=O)Nc2ccccc2Cl)s1` [Example 6, N-(2-chlorophenyl)[5-(6-methylbenzothiazol-5-yl)(2-thienyl)]carboxamide], the IC50 in assay [1] was below 600 nM; in the assay on RBL-2H3 cells (Rattus norvegicus), below 600 nM; in assay [2] (Homo sapiens) it was below 50 nM.
As for `O=C(Nc1c(F)cccc1F)c1ccc(-c2cc3scnc3cc2Cl)s1` [Example 7, N-(2,6-difluorophenyl)[5-(5-chlorobenzothiazol-6-yl)(2-thienyl)]carboxamide], the figures for the IC50 (in assay [1]; with RBL-2H3 cells (Rattus norvegicus); in assay [2] (Homo sapiens)) were below 600 nM, below 600 nM and below 50 nM, respectively.
Turning to `O=C(Nc1ccccc1F)c1ccc(-c2cc3scnc3cc2Cl)s1` [Example 9, [5-(5-chlorobenzothiazol-6-yl)(2-thienyl)]-N-(2-fluorophenyl)carboxamide], the values for the half-maximal inhibitory concentration (IC50) (in assay [1]; with RBL-2H3 cells (Rattus norvegicus); in assay [2] (Homo sapiens)) were below 600 nM, below 600 nM and below 50 nM, respectively.
Turning to `Cc1cc2c(C)noc2cc1-c1ccc(C(=O)Nc2c(F)cccc2F)s1` [Example 10, N-(2,6-difluorophenyl)[5-(3,5-dimethylbenzo[d]isoxazol-6-yl)(2-thienyl)]carboxamide], the IC50 in assay [1] was below 600 nM; with RBL-2H3 cells (Rattus norvegicus) it was below 600 nM; in assay [2] (Homo sapiens), below 50 nM.
As to `Cc1cc2c(C)noc2cc1-c1ccc(C(=O)Nc2ccccc2F)s1` [Example 11, [5-(3,5-dimethylbenzo[d]isoxazol-6-yl)(2-thienyl)]-N-(2-fluorophenyl)carboxamide], the IC50 in assay [1] was below 600 nM; in the assay on RBL-2H3 cells (Rattus norvegicus), below 600 nM; in assay [2] (Homo sapiens) it was below 50 nM.
Consider `Cc1cc2cn(C)nc2cc1-c1ccc(C(=O)Nc2ccccc2F)s1` [Example 13], for which the IC50 is below 600 nM in assay [1], below 600 nM with RBL-2H3 cells (Rattus norvegicus) and below 50 nM in assay [2] (Homo sapiens).
As to `Cc1nc2cc(Cl)c(-c3cnc(NC(=O)c4ccccc4Cl)s3)cc2o1` [Example 19, N-[5-(5-chloro-2-methybenzoxazol-6-yl)(1,3-thiazol-2-yl)](2-chlorophenyl)carboxamide], the IC50 in assay [1] was below 600 nM; with RBL-2H3 cells (Rattus norvegicus), below 600 nM; in assay [2] (Homo sapiens) it was 50 to 100 nM.
As to `Cc1cc2scnc2cc1-c1cnc(NC(=O)c2c(F)cccc2F)s1` [Example 20], the IC50 is 600 to 1200 nM in assay [1], below 600 nM in the assay on RBL-2H3 cells (Rattus norvegicus) and below 50 nM in assay [2] (Homo sapiens).
Consider `CCn1nc(C(F)(F)F)cc1-c1cnc(NC(=O)c2ccccc2Cl)s1` [Example 24, (2-chlorophenyl)-N-{5-[1-ethyl-3-(trifluoromethyl)pyrazol-5-yl](1,3-thiazol-2-yl)}carboxamide], for which the half-maximal inhibitory concentration (IC50) in assay [1] is 600 to 1200 nM; in the assay on RBL-2H3 cells (Rattus norvegicus), below 600 nM; in assay [2] (Homo sapiens), below 50 nM.
On to `Cn1nc(C(F)(F)F)cc1-c1cnc(NC(=O)c2ccccc2Cl)s1` [Example 27, (2-chlorophenyl)-N-{5-[1-methyl-3-(trifluoromethyl)pyrazol-5-yl](1,3-thiazol-2-yl)}carboxamide], for which the IC50 was below 600 nM in assay [1], below 600 nM with RBL-2H3 cells (Rattus norvegicus) and below 50 nM in assay [2] (Homo sapiens).
Consider `Cn1nc(C(F)(F)F)cc1-c1cnc(NC(=O)c2c(F)cccc2F)s1` [Example 28, (2,6-difluorophenyl)-N-{5-[1-methyl-3-(trifluoromethyl)pyrazol-5-yl](1,3-thiazol-2-yl)}carboxamide], for which the IC50 is below 600 nM in assay [1], below 600 nM with RBL-2H3 cells (Rattus norvegicus) and below 50 nM in assay [2] (Homo sapiens).
In the case of `Cn1nc(-c2ccccc2F)cc1-c1ccc(C(=O)Nc2c(F)cccc2F)s1` [Example 35, N-(2,6-difluorophenyl){5-[3-(2-fluorophenyl)-1-methylpyrazol-5-yl](2-thienyl)}carboxamide], the 50% inhibitory concentration (IC50) in assay [1] is below 600 nM; in the assay on RBL-2H3 cells (Rattus norvegicus), below 600 nM; in assay [2] (Homo sapiens) it was below 50 nM.
Take `Cn1nc(-c2ccccc2F)cc1-c1ccc(C(=O)Nc2ccccc2Cl)s1` [Example 41]: the IC50 is below 600 nM in assay [1], below 600 nM with RBL-2H3 cells (Rattus norvegicus) and above 100 nM in assay [2] (Homo sapiens).
`Cn1nc(-c2ccccc2)cc1-c1ccc(C(=O)Nc2c(F)cccc2F)s1` [Example 42, N-(2,6-difluorophenyl)[5-(1-methyl-3-phenylpyrazol-5-yl](2-thienyl)}carboxamide]: the results for the IC50 (in assay [1]; in the assay on RBL-2H3 cells (Rattus norvegicus); in assay [2] (Homo sapiens)) were below 600 nM, below 600 nM and below 50 nM, respectively.
With `Cn1nc(-c2ccccc2)cc1-c1ccc(C(=O)Nc2ncc(Cl)cc2F)s1` [Example 46], the IC50 is below 600 nM in assay [1], below 600 nM in the assay on RBL-2H3 cells (Rattus norvegicus) and below 50 nM in assay [2] (Homo sapiens).
Regarding `Cc1nc(-c2cc(-c3cnc(NC(=O)c4ccccc4Cl)s3)n(C)n2)no1` [Example 48], the IC50 in assay [1] is below 600 nM; in the assay on RBL-2H3 cells, 600 to 1200 nM; in assay [2] it was above 100 nM.
As to `Cn1nc(-c2nccs2)cc1-c1ccc(C(=O)Nc2ccccc2Cl)s1` [Example 55], the IC50 was below 600 nM in assay [1], below 600 nM in the assay on RBL-2H3 cells (Rattus norvegicus) and below 50 nM in assay [2] (Homo sapiens).
